Results: US4695580A, “Phenylserine derivatives and processes for preparing the same” (Sumitomo Pharmaceuticals Company, Ltd., priority 1983, dated 1987)
Structures can show the parent of a compound that is named as a salt.

Key:
SRS-A = experiment: Anti-SRS-A activity by Magnus method, isolated guinea pig ileum; format: cell-based; conditions: Cavia porcellus, read-out: Inhibition (anti-SRS-A activity, inhibition rate); for inhibition at 1 µM: drug at 10^-6 M (values marked *); for inhibition at 1 µg/mL: 5 min, drug at 10^-6 g/ml (values without *)
Method: Anti-SRS-A activity of the drugs (the compounds of the present invention) was assayed by using isolated ileum of guinea pig (weighing 300-400 g, male).
SRS-A sample was prepared as follows.
Male albino guinea-pigs were administered by intraperitoneal and subcutaneous injection of 50 mg ovalbumin emulsified with a half amount of Freund's complete adjuvant every other day (total three times). 4 Weeks after the administration lungs were isolated from guinea-pigs and chopped into small pieces. The tissue was placed in Tyrode solution containing indomethacin (1μg/ml) and incubated at 37° C. for 15 min. The incubated solution was then centrifuged and the supernatant fluid was used for the SRS-A sample.
The anti-SRS-A activity was assayed by Magnus method, i.e. a modified method by Eda et al. [cf. Bulletin of Pharmacology in Japan, 66, 194-213 (1970)] using isolated guinea pig ileum. That is, an isolated ileum of guinea pig was hung within an organ bath which was filled with a Tyrode solution containing mepyramine (0.4 μg/ml) and atropine (0.35,/μg/ml) at 37° C. under aeration. The SRS-A sample was given until reproducible contractions were obtained. A solution of the drug (the compounds of the present inventions was added thereto in the final concentration of 10^-6 g/ml or 10^-6 M. After 5 minutes, the SRS-A sample was again acted, and the change of contractile response was measured. Based on the change of contractile response, the anti-SRS-A activity (inhibition rate) was calculated by the following equation: [formula] wherein
a^1 : Contractile response before administration of a drug.
a^2 : Contractile response after administration of a drug.

5-lipoxygenase = molecular target: T1, 5-lipoxygenase (Cavia porcellus, UniProt A0A286X958); experiment: 5-Lipoxygenase inhibitory activity (inhibition of 5-HETE production) in guinea pig abdominal leucocytes; format: cell-based; conditions: 10 μM compound, A 23187, 14C-arachidonic acid, read-out: Inhibition (5-HETE production, inhibition rate)
T1 construct: leucocytes isolated from abdominal cavity of guinea pig; endogenous in cells; host or cells: leucocytes isolated from the abdominal cavity of guinea pig (intact cells)
T1 sequence (A0A286X958 1-674): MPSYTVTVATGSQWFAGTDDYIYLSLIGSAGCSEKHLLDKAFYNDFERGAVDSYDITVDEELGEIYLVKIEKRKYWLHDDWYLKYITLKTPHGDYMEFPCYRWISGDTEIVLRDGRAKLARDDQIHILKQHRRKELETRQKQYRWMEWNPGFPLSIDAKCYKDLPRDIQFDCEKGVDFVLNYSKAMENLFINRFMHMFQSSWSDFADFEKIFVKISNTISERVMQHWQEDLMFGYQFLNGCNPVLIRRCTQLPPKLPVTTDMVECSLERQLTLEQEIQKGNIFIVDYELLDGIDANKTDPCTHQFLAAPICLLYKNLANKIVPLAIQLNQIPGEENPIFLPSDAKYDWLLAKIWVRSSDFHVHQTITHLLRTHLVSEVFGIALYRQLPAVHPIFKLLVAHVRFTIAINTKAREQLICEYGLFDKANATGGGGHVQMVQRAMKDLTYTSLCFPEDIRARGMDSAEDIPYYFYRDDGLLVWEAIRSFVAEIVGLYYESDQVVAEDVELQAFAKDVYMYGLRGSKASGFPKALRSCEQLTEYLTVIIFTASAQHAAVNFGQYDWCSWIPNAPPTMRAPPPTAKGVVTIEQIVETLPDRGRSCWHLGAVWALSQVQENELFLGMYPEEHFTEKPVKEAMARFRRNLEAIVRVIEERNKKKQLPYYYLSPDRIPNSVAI
Method: The inhibitory activity was assayed in the same manner as described by J. Harvey et al. That is, leucocytes isolated from abdominal cavity of guinea pig were suspended in Krebs Ringer buffer (KRB, pH 7.4) in a concentration of 2.2×10^7 […]. The leucocytes suspension (935 μl) was preincubated with shaking at 37° C. for 10 minutes, and thereto was added a solution (10 μl) of test drugs (the compounds of the present invention) in dimethylsulfoxide (DMSO) (the final concentration of the compound being 10 μM in the solution). The mixture was incubated for 10 minutes, and then, ^14 C-arachidonic acid (0.1 μCi, 50 μl) (in 5% ethanol/KRB) and A 23187 (J. Pharmacol. Methods, 9, 147-155(1983), 5 μg in 5 μl DMSO) were added thereto, and the mixture was further incubated for 10 minutes. Ice-cooled 0.2M aqueous citric acid solution (100 μl) was added thereto in order to stop the reaction, and then, water (4 ml) was further added thereto. The mixture was twice extracted with ethyl acetate (each 2.5 ml), and the organic layer was distilled to dryness under nitrogen. The resulting residue was dissolved in ethyl acetate and the solution was applied onto a TLC plate. After developing with toluene-dioxane-acetic acid (65:34:1.5 V/V), 5-HETE (5-hydroxyeicosatetraenoic acid) produced by 5-lipoxygenase was measured with TLC scanner. The inhibition rate (%) was calculated by comparing the amount of 5-HETE between the addition and non-addition of a drug by the following equation: [formula] wherein
b^1 : Amount of produced 5-HETE in case of non-addition of a drug.
b^2 Amount of produced 5-HETE in case of addition of a drug.

Compound	inhibition at 1 µM (SRS-A) [%]	inhibition at 1 µg/mL (SRS-A) [%]	inhibition at 10 µM (5-lipoxygenase) [%]
O=C([C@@H](NCCCc1ccccc1)[C@H](O)c1ccc(O)c(O)c1)N1CCCC1 (relative stereo) [Compd. No. 13]	100		
CC(CCc1ccccc1)N[C@H](C(=O)N1CCCC1)[C@H](O)c1ccc(O)c(O)c1 (relative stereo) [Compd. No. 19, DL-Threo-3-(3,4-dihydroxyphenyl)-N-(1-methyl-3phenylpropyl)serine pyrrolidine amide]		100	> 70
COC(=O)[C@@H](NC(C)CCc1ccccc1)[C@H](O)c1ccc(O)c(O)c1 (relative stereo) [Compd. No. 120, DL-threo-3-(3,4-dihydroxyphenyl)-N-(1-methyl-3-phenylpropyl)serine methyl ester]		97	
COC(=O)[C@@H](NC(C)CCc1ccc(OC)cc1)[C@H](O)c1ccc(O)c(O)c1 (relative stereo) [Compd. No. 122, DL-threo-3-(3,4-dihydroxyphenyl)-N-[1-methyl-3-(p-methoxyphenyl)propyl]serine methyl ester]		94	> 70
CCOC(=O)[C@@H](NC(C)CCc1ccccc1)[C@H](O)c1ccc(O)c(O)c1 (relative stereo) [Compd. No. 132, DL-Threo-3-(3,4-dihydroxyphenyl)-N-(1-methyl-3-phenylpropyl)serine ethyl ester]		82	> 70
CC(CCc1ccccc1)N[C@H](C(=O)OC(C)C)[C@H](O)c1ccc(O)c(O)c1 (relative stereo) [Compd. No. 158, DL-threo-3-(3,4-dihydroxyphenyl)-N-(1-methyl-3-phenylpropyl)serine isopropyl ester]		96	
CC(C)COC(=O)[C@@H](NC(C)CCc1ccccc1)[C@H](O)c1ccc(O)c(O)c1 (relative stereo) [Compd. No. 170, DL-threo-3-(3,4-dihydroxyphenyl)-N-(1-methyl-3-phenylpropyl)serine isobutyl ester]		85	
CC(CCc1ccccc1)N[C@H](C(=O)NN)[C@H](O)c1ccc(O)c(O)c1 (relative stereo) [Compd. No. 178, DL-threo-3-(3,4-dihydroxyphenyl)-N-(1-methyl-3-phenylpropyl)serine hydrazide]		81	
CC(CCc1ccccc1)N[C@H](CO)[C@H](O)c1ccc(O)c(O)c1 (relative stereo) [Compd. No. 183, DL-threo-1-(3,4-dihydroxyphenyl)-2-(1-methyl-3-phenylpropyl)amino-1,3-propanediol 1/2 oxalate]		97	> 70
CC(CCc1ccccc1)N[C@H](COC(N)=O)[C@H](O)c1ccc(O)c(O)c1 (relative stereo) [Compd. No. 189, DL-threo-1-(3,4-dihydroxyphenyl)-2-(1-methyl-3-phenylpropyl)-amino-3-carbamoyloxypropanol]		98	
CNC(=O)[C@@H](NC(C)CCc1ccccc1)[C@H](O)c1ccc(O)c(O)c1 (relative stereo) [compound 48]		100	
CC(CCc1ccccc1)N[C@H](C(=O)N1CCc2ccccc21)[C@H](O)c1ccc(O)c(O)c1 (relative stereo) [compound 77]	96		> 70
COC(=O)[C@@H](NC(C)CCC(C)C)[C@H](O)c1ccc(O)c(O)c1 (relative stereo) [compound 142]		91	> 70
COC(=O)[C@@H](NC(C)CCc1ccc(O)cc1)[C@H](O)c1ccc(O)c(O)c1 (relative stereo) [compound 143]		83	
COC(=O)[C@@H](NC(C)CCCCC(=O)Nc1ccc(C(F)(F)F)cc1)[C@H](O)c1ccc(O)c(O)c1 (relative stereo) [compound 146]		94	
CCCCc1ccc(NC(=O)CCCCC(C)N[C@H](C(=O)OC)[C@H](O)c2ccc(O)c(O)c2)cc1 (relative stereo) [compound 147]		100	
CC(CCc1ccccc1)N[C@H](C(N)=O)[C@H](O)c1ccc(O)c(O)c1 (relative stereo) [compound 177, DL-threo-3-(3,4-dihydroxphenyl)-N-(1-methyl-3-phenylpropyl)serine amide]		86	
CC(CCc1ccccc1)N[C@H](C(=O)N1CCCC1)[C@H](O)c1ccc(O)c(O)c1 (stereo partly drawn) [Compd. No. 10, L-Threo-3-(3,4-dihydroxyphenyl)-N-(1-methyl-3-phenylpropyl)serine pyrrolidine amide]	100		
COC(=O)[C@H](NC(C)CCc1ccccc1)[C@@H](O)c1ccc(O)c(O)c1 (stereo partly drawn) [Compd. No. 156, D-threo-3-(3,4-dihydroxyphenyl)-N-(1-methyl-3-phenylpropyl)serine methyl ester]		90	
COc1cc(C)c(CCC(C)N[C@H](C(=O)N2CCCC2)[C@H](O)c2ccc(O)c(O)c2)c(C)c1C (some centres unmarked) [compound 28]	94		
CC(CCc1ccc(F)cc1)N[C@H](C(=O)N1CCCC1)[C@H](O)c1ccc(O)c(O)c1 (some centres unmarked) [compound 29]	97		
CC(CCc1cccc2ccccc12)N[C@H](C(=O)N1CCCC1)[C@H](O)c1ccc(O)c(O)c1 (some centres unmarked) [compound 34]	92		
CC(CCc1ccco1)N[C@H](C(=O)N1CCCC1)[C@H](O)c1ccc(O)c(O)c1 (some centres unmarked) [compound 35]	87		
CCCCc1ccc(NC(=O)CCCCC(C)N[C@H](C(=O)N2CCCC2)[C@H](O)c2ccc(O)c(O)c2)cc1 (some centres unmarked) [compound 41]	81		
CC(CCCCC(=O)Nc1ccc(C(F)(F)F)cc1)N[C@H](C(=O)N1CCCC1)[C@H](O)c1ccc(O)c(O)c1 (some centres unmarked) [compound 42]	97		
COC(=O)[C@@H]1CCCN1C(=O)[C@@H](NC(C)CCc1ccccc1)[C@H](O)c1ccc(O)c(O)c1 (some centres unmarked) [compound 65]	85		
